Measurements taken from patent publication US11331376B2, “Oral administration of unstable or poorly-absorbed drugs” (InnoPharmax, Inc., priority 2014, dated 2022).

Assays:
[1] = tested on: STZ-induced diabetic mice; experiment: In vivo hypoglycemic study, blood glucose after oral gavage in STZ-induced diabetic mice; set-up: species or system male C57BL/6JNarl mice
Protocol: Diabetes was induced in male C57BL/6JNarl mice (8 weeks age, around 20 grams body weight) by two tail vein injections of streptozotocin (STZ) (first: 75 mg/kg, second: 150 mg/kg). Induction of diabetes in mice was verified by measuring glucose concentration in a blood sample that was obtained from the tail vein. […] An composition containing 200 IU/kg of insulin was administered by oral gavage to each of eight STZ-induced diabetic mice in three groups (i.e., 24 mice total). A first group each received free non-modified insulin suspended in about 160-230 microliters (depending on animal weight) of a 3.78% (w/w) NaHCO3 antacid solution. A second group each received insulin in the form of Formulation 1 suspended in about 160-230 microliters of phosphate-buffered saline (PBS). A third group received Formulation 1 insulin in the form of Formulation 1 suspended in about 160-230 microliters of a 3.78% (w/w) NaHCO3 antacid solution (i.e., a ten-fold dilution of Formulation 1). […] Blood samples were drawn from each mouse following gavage, and blood glucose levels in those samples were determined. […] Drug remaining in the formulation was analyzed, and in vivo potency was also assessed by administering insulin formulation into streptozotocin-induced diabetic mice and measuring blood glucose with a glucometer.

Protocol for Caco-2 cell monolayers: Caco-2 cells were cultured at 37±2 degrees Celsius in minimum essential medium (MEM) with Eagles salt and 1-glutamine supplemented with 15% fetal bovine serum, with 1% of non-essential amino acid, and with 1% of antibiotic-antimycotic in a incubator under a 5% carbon dioxide atmosphere to simulate intestinal lining cells.
At time zero, medium on one face of the cell monolayer was replaced by 0.5 milliliter of a solution that included one of Formulation 1, 2, or 3 or of insulin not incorporated into a SMEDDS-containing formulation. The solution was diluted ten-fold with medium (i.e., one part insulin-containing solution and nine parts buffer) prior to application to the monolayer. Thirty minutes following this replacement, insulin content at the basolateral face of the monolayer was analyzed by HPLC. The permeability coefficient (Papp) was calculated from the following equation: Papp=(dQ/dt)/(C0×area), where dQ/dt is the linear appearance rate obtained from the profile of the transported amount of the substrate against the time (measured in micrograms per second); C0 is a measured initial concentration in the donor compartment (measured in micrograms per milliliter), and “area” is the membrane surface area of the cell monolayer.

With “free insulin: non-modified human insulin not combined with a SMEDDS-containing composition” the “blood glucose levels at any time point” value ([1]; 200 IU/kg free insulin solution by oral gavage) was “No significant differences in the blood glucose levels”, the “blood glucose levels over study period” value ([1]; 200 IU/kg oral gavage, free insulin in 3.78% NaHCO3 antacid solution) was “did not vary significantly” and the “trans-monolayer transport of insulin” value (Caco-2 cell monolayers) was “No trans-monolayer transport”.
